From patent publication US7705016B2, “Regulation of food intake by modulation of long-chain fatty acyl-CoA levels in the hypothalamus” (Albert Einstein College of Medicine of Yeshiva University, priority 2003, dated 2010)

Test system: CPT1L mRNA
Test: CPT1L mRNA in stably transfected AtT20 cells (northern blot)
Type: cell-based
Details: AtT20 cells expressing CPT1L-Ribo; normalized to β-actin
From the text: Potent anorexic drugs such as fatty acid synthase (FAS) inhibitors increase the levels of malonyl-CoA, which is derived from the carboxylation of acetyl-CoA by the enzyme acetyl-CoA carboxylase (ACC). High levels of malonyl-CoA in turn inhibit CPT1-dependent oxidation of long-chain fatty acyl-CoAs (LC-CoAs). Similarly, the ICV administration of exogenous fatty acids (LCFA) directly increases the cellular levels of LC-CoA. In either case the resulting increase in intracellular LC-CoA concentration leads to inhibition of feeding behavior. […] LEFT: A probe specific for the liver isoform of CPT1 (CPT1L) detected a ˜4.3 Kb band in the liver (L) and in hypothalamus (H), but not in hind limb muscle (M). RIGHT: Hybridization with a muscle-specific CPT1 probe (CPT1M) detected a ˜3 Kb band in […] muscle (M), but not in hypothalamus. Each lane contained 1.5 μg of mRNA. […] About 200 stable clones were selected for neomycin resistance and analyzed by Northern blot. […] Data are expressed as % of control after normalization with β-actin expression. […] Levels of LC-CoAs were measured by HPLC in liver and skeletal muscle tissues of rats infused IV with vehicle (▪) or CPT1 inhibitors (□). […]
Quantitation of CPT1 and neuropeptides mRNA by Northern and real-time PCR. […]

CPT1L-Ribo: plasmid (pTarget, CMV promoter) expressing a hammerhead ribozyme that specifically cleaves rat CPT1L mRNA, complexed to PEI for ICV injection (DNA CUGUACCAAAGAGCUGUAGAGUCCGUGAGGACGAAACGCCGCUCACAAUG)
less CPT1L mRNA than control cells transfected with vector alone: ~50%
